Measurements published in ChEMBL document CHEMBL1201862, “PubChem BioAssay data set” (2004).
Calls of active or inactive are those of the source.

Columns and labels:
[1] = biological target: T1, Protein skinhead-1 (Caenorhabditis elegans, UniProt P34707); format: functional
T1 sequence (P34707 whole entry): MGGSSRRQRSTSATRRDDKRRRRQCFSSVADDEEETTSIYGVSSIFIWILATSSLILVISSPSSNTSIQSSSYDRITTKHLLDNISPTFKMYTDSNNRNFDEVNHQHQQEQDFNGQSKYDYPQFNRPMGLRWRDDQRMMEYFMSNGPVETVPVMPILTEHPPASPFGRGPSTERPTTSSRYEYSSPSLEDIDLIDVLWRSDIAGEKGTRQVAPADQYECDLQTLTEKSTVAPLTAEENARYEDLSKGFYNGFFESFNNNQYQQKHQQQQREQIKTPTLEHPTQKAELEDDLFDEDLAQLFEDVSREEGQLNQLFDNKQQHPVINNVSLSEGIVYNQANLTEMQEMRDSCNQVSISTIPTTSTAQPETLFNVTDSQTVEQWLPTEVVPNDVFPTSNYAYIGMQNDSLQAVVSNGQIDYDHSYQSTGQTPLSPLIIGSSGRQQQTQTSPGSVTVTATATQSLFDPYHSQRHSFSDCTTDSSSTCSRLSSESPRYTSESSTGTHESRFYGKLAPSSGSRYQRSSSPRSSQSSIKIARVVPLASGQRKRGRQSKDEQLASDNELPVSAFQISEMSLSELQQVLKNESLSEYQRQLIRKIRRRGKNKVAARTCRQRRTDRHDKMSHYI

[2] = biological target: T2, Heat shock factor protein 1 (Mus musculus, UniProt P38532); experiment: HSF1 potentiators in luciferase reporter cells, confirmation, cell-based, NIH3T3, luminescence, dose retest (AID 435004); format: functional;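 further: stress induced by proteasome inhibitor MG132 added 30 min after compound; luciferase reporter driven by HSF1 response element in NIH3T3 cells; actives raise luminescence as potentiators of the MG132 stress response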
T2 sequence (P38532 whole entry): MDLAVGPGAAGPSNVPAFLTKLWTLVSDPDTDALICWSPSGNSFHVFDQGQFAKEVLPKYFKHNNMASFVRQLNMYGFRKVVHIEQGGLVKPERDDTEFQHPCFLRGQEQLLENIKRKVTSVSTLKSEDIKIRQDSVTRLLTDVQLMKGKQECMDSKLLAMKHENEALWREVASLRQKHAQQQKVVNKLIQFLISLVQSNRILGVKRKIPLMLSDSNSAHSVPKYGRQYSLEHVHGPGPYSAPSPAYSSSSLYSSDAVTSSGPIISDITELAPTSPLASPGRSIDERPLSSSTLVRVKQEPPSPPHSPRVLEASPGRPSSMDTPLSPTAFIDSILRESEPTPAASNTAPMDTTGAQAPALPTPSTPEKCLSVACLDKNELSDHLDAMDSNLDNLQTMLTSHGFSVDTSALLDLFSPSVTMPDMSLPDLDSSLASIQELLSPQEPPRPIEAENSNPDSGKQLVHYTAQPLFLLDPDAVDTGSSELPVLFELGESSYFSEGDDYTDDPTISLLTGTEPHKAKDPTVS

[3] = A cytotoxicity screen of small molecule inhibitors of the PhoP region in Salmonella typhi identified in the primary screen. [Related pubchem assays: 1850, 1864, 1985 ]; format: functional
[4] = biological target: T3, Polyadenylate-binding protein 1 (Homo sapiens, UniProt P11940); experiment: PABP1 MLLE–PAM2 interaction inhibitors, dose response, miRNA deadenylation inhibitor project, biochemical, fluorescence polarization, Cy5-PAM2 peptide, secondary (AID 602260); format: functional; details: read-out: IC50_Mean
[5] = biological target: T3, Polyadenylate-binding protein 1; experiment: PABP1 MLLE–PAM2 binding inhibitor potency, dose response, biochemical, fluorescence polarization, FITC-PAM2 peptide (AID 602259); format: functional; details: read-out: IC50_Mean
[6] = biological target: T4, High affinity choline transporter 1 (Homo sapiens, UniProt Q9GZV3); experiment: CHT inhibitors, dose response, cell-based, 5-point CRC, membrane potential dye (AID 504840); format: functional
T4 sequence (Q9GZV3 whole entry): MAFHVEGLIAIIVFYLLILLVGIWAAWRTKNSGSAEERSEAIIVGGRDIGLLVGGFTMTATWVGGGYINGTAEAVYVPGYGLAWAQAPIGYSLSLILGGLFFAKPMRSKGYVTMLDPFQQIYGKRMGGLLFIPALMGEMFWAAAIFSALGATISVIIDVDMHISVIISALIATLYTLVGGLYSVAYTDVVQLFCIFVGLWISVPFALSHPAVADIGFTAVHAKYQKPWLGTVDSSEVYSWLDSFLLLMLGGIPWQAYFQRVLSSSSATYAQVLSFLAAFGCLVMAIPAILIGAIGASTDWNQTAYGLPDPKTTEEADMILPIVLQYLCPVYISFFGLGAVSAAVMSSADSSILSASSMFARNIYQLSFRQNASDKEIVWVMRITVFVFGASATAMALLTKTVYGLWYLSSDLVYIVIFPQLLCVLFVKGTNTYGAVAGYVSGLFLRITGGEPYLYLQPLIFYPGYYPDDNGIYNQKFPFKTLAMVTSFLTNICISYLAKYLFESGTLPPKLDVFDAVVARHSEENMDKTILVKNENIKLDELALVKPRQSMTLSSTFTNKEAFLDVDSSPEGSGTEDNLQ

[7] = microbe, parasite or virus in culture; format: functional; details: Mycobacterium tuberculosis
[8] = test system: H4; experiment: Luminescence Cell-Based Dose Response HTS to Identify Activators of 5'UTR Stem-Loop Driven Prion Protein mRNA Translation in H4 Neuroglioblastoma Cells. [Related pubchem assays: 1829 (Project Summary), 1814 (Primary HTS)]; format: functional; details: Homo sapiens
[9] = inhibitors of intracellular T. cruzi replication, confirmation, NIH3T3 host cells, beta-gal luminescence (AID 2044); format: functional, cell-based;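 further: intracellular parasites grown in NIH/3T3 mouse fibroblasts as host cells; luminescent beta-galactosidase reporter signal from transgenic T. cruzi replicating inside host cells; inhibitors lower the luminescence signal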
[10] = test system: INS1; experiment: beta cell apoptosis inhibitors, cytokine rescue, dose response, luminescence, retest (AID 449756); format: functional, cell-based; details: Rattus norvegicus;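 further: cell death triggered by IL-1 beta plus TNF-alpha plus IFN-gamma mixture; protective hits raise ATP signal compared with cytokine alone wells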
[11] = Luminescence Cell-Based Dose Response HTS to Identify Activators of Luciferase Translation or Activity in H4 […] Cells. [Related pubchem assays: 1829 (Project Summary), 1814 (Primary HTS)]; format: functional
[12] = Luminescence Cell-Based Dose Confirmation HTS to Identify Activators of 5'UTR Stem-Loop Driven Alpha-Synuclein mRNA Translation in H4 Neuroglioblastoma Cells. [Related pubchem assays: 1829 (Project Summary), 1814 (Primary HTS)]; format: functional
[13] = cytotoxicity toward NIH3T3 fibroblasts, dose response, counter-screen, cell-based, ATP luminescence, mouse fibroblasts (AID 2010); format: functional;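 further: cells exposed to compound for about 90 hours before reading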
[14] = Luminescence Cell-Based Dose Retest to Confirm Inhibitors of Cancer Stem Cells. [Related pubchem assays (depositor defined):AID2717, AID2721]; format: functional; details: Homo sapiens
[15] = test system: Streptococcus sp. 'group A'; experiment: growth inhibition of control SK(-) GAS strain, dose response, counter-screen for streptokinase expression inhibitor project, luminescence, kanamycin, BacTiterGlo, confirmation (AID 1900); format: functional, organism-based
[16] = test system: Streptococcus; experiment: Group A Streptococcus viability loss, dose response, counter-screen for streptokinase expression inhibitor project, luminescence, BacTiterGlo (AID 1915); format: functional, organism-based;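 further: potency for reduction of bacterial viability or growth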
[17] = biological target: T5, Streptokinase A (Streptococcus pyogenes serotype M1, UniProt P10520); experiment: S. pyogenes streptokinase expression inhibitors, potency, dose response, plasminogen activation absorbance, OD405 (AID 1914); format: functional, Streptococcus pyogenes M1 GAS;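 further: secreted streptokinase activity via plasminogen activation per viability signal from cell pellet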
T5 sequence (P10520 whole entry): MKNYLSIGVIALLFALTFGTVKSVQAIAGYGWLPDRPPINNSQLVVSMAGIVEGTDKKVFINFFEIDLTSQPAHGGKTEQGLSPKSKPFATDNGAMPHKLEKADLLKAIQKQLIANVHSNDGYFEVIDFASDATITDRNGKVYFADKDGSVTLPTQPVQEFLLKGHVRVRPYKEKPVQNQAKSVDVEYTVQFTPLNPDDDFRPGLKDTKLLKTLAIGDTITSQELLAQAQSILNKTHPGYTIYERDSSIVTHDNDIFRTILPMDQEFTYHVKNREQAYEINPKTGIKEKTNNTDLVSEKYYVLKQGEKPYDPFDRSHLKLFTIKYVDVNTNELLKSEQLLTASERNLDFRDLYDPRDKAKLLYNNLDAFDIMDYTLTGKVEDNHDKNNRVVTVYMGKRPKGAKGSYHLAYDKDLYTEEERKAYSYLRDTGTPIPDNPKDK

[18] = cells; format: functional

T3 sequence (P11940 whole entry): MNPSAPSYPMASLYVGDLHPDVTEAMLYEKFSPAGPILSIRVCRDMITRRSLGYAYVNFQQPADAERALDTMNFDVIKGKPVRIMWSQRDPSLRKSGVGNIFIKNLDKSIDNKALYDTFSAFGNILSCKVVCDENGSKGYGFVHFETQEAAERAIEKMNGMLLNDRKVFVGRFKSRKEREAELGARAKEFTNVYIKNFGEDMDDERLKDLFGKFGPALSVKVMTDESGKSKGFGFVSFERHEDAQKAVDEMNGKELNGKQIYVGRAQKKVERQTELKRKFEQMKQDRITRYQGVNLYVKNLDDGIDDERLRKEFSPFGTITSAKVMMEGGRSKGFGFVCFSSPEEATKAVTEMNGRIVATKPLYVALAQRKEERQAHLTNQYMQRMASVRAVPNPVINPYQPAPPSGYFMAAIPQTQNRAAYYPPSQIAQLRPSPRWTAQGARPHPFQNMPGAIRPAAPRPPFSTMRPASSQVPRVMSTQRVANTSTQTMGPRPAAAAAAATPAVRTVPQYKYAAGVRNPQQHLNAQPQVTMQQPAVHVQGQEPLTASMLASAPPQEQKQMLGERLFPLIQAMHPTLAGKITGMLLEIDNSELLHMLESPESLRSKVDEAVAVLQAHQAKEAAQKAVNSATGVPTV

## COc1ccccc1C1CC(c2cccc(NS(C)(=O)=O)c2)=NN1S(=O)(=O)c1ccccc1 (centres undefined)
[1]
  IC50: > 100 µM (inactive)

## O=S(=O)(Nc1ccc(-c2nnc3n2CCCCC3)cc1)c1ccc2nc(O)oc2c1
[2]
  EC50: > 260 µM (inactive)

## N#C/C(=C(/O)c1ccco1)c1nc2ccccc2s1
[3]
  EC50: > 50 µM (active)

## O=C1C=C(c2ccccc2)CC(/C=C/c2ccccc2)C1 (centres undefined)
[2]
  EC50: > 260 µM (inactive)

## Brc1ccc(-c2nnc(-c3ccccc3)o2)o1
[1]
  IC50: > 100 µM (inactive)

## CSc1ccc(/C=N\Nc2nncn2N)cc1
[2]
  EC50: 141 µM (active)

## Cc1n[nH]c(O)c1/C=N/Cc1cccs1
[2]
  EC50: > 260 µM (inactive)

## CCC(C)(C)n1nnnc1C(c1cc2cc(C)cc(C)c2nc1O)N1CCN(Cc2ccc3c(c2)OCO3)CC1 (centres undefined)
[2]
  EC50: > 260 µM (inactive)

## O=C(NC(=S)Nc1ncccn1)c1ccccc1Br
[4]
  IC50: > 66 µM (inactive)
[5]
  IC50: > 66 µM (inactive)

## Cc1cccc(N2CCN(C(=O)c3ccc(CNc4c(N5CCC(C)CC5)c(=O)c4=O)cc3)CC2C)c1 (centres undefined)
[6]
  IC50: 14.5 µM (active)

## O=[N+]([O-])c1ccc(-c2cnc(NO)nc2)cc1
[3]
  EC50: > 50 µM (active)

## COc1nc(-c2ccccc2)cc(-c2ccc(OC)c(OC)c2)n1
[7]
  CC50: > 40 µM (active)

## Clc1c(-c2ccccc2)nnn1-c1ccccc1
[1]
  IC50: > 100 µM (inactive)

## C[C@@]12C(=O)N(Cc3ccc(-c4ccccc4)cc3)CC(=O)N1[C@H](/C=C/c1ccccc1)[C@@H]1C(=O)N(c3ccccc3)C(=O)[C@@H]12
[1]
  IC50: > 100 µM (inactive)

## CC(CC#CCN1CCOCC1)OCCC#N (centres undefined)
[2]
  EC50: > 260 µM (inactive)

## CCOC(=O)c1c(N2C(=O)CC(Sc3ccccc3C(=O)O)C2=O)sc2c1CCCC2 (centres undefined)
[4]
  IC50: > 66 µM (inactive)
[5]
  IC50: > 66 µM (inactive)

## O=C(CCn1c(=O)c2ccccc2n(CC(=O)NCCC2=CCCCC2)c1=O)NCc1ccco1
[1]
  IC50: > 100 µM (inactive)

## Cc1cc(C)c(Cn2c3ccccc3c3cnn(CC(=O)NCCN4CCOCC4)c(=O)c32)c(C)c1
[6]
  IC50: 15.8 µM (active)

## CCCN1CCc2nc(S)nc(O)c2C1
[4]
  IC50: > 66 µM (inactive)
[5]
  IC50: > 66 µM (inactive)

## CC(C)Cn1c(=O)c2c(nc3n2CCCN3CCc2ccccc2)n(C)c1=O
[6]
  IC50: 13.2 µM (active)

## Cc1cccc(C(=O)Nc2cccc(OCC(=O)O)c2)c1
[6]
  IC50: 7.59 µM (active)

## O=C(N/N=C/c1cc(Cl)cc([N+](=O)[O-])c1O)C1CC1
[3]
  EC50: > 50 µM (active)

## COc1ccc(NC(=O)COc2cccc3c2CCN(Cc2cccnc2)C3=O)c(OC)c1
[2]
  EC50: > 260 µM (inactive)

## Cc1cccc2cc3c(nc12)S/C(=N/CC1CCCO1)N(Cc1ccco1)C3 (centres undefined)
[2]
  EC50: 44.6 µM (active)

## CC(C)(C)C(=O)Nc1scc(-c2ccc(-c3ccccc3)cc2)c1C(=O)O
[6]
  IC50: 14.5 µM (active)

## Cc1nc(NC(=O)C23CC4CC(CC(C4)C2)C3)sc1Cc1ccc2c(c1)OCO2
[8]
  EC50: 8.65 µM (active)
[9]
  EC50: 0.844 µM (active)
[10]
  AC50: 14.1 µM (active)
[11]
  EC50: 6.33 µM (active)
[12]
  EC50: 15.8 µM (active)
[13]
  EC50: > 60 µM (not active)

## CC(=O)NCCn1c(C)cc2ccccc21
[1]
  IC50: > 100 µM (inactive)

## CN1CCN(C2=Cc3ccc(Cl)cc3Sc3ccc(F)cc32)CC1
[14]
  AC50: 6.81 µM (active)
[15]
  EC50: 7.12 µM (active)
[16]
  EC50: 7.8 µM (active)
[7]
  CC50: 33.1 µM (active)

## Sc1nc2ccccc2c2nc(-c3ccccc3)nn12
[15]
  EC50: 5.84 µM (active)
[16]
  EC50: > 150 µM (not active)
[17]
  EC50: > 150 µM (not active)
[7]
  CC50: 35.2 µM (active)

## O=C(Nc1ccc(Cl)cc1)NC1CCCCNC1=O (centres undefined)
[1]
  IC50: > 100 µM (inactive)

## Cc1ccc(NC(S)=NCc2cccs2)cc1
[3]
  EC50: > 50 µM (active)

## COC(=O)c1nnn(CC(=O)NC(=O)Nc2ccc(F)cc2)c1C(=O)OC
[2]
  EC50: > 260 µM (inactive)

## CC1CC(C)CN(C(=O)COC(=O)c2ccc([N+](=O)[O-])o2)C1 (centres undefined)
[18]
  IC50: 14.7 µM (active)

## COc1ccc(-c2ccc(OC)c([C@H]3[C@@H]4C=CCC[C@@]4(C)C(=O)N3Cc3ccccc3)c2)cc1OC
[7]
  CC50: > 40 µM (active)

## CC(c1ccccc1)(c1ccccc1)c1ccncc1
[3]
  EC50: > 50 µM (active)

## COc1ccc(S(=O)(=O)N2CN3CCN(C3)C2)cc1
[3]
  EC50: > 50 µM (active)

## COc1ccc(CNc2[nH]cnc3c4cc(OC)c(OC)cc4nc2-3)cc1
[7]
  CC50: > 40 µM (active)

## NC(=O)c1ccc[n+](CC(=O)c2cccc([N+](=O)[O-])c2)c1
[3]
  EC50: > 50 µM (active)

## CCN1CCCC1CNC(=O)c1ccc2c(c1)N(Cc1ccccc1F)C(=O)c1ccccc1S2(=O)=O (centres undefined)
[6]
  IC50: 11.2 µM (active)

## Cc1cccc(N2CCN(C(=O)CCN3C(S)=NC(C)(C)CC3C)CC2)c1C (centres undefined)
[3]
  EC50: > 50 µM (active)

## CC1(C)c2ccccc2C(=O)c2ccccc21
[1]
  IC50: 24 µM (active)

## O=C(Cc1c(O)c2ccccc2[nH]c1=O)NCc1ccccc1
[2]
  EC50: > 260 µM (inactive)

## COC(=O)C(O)(c1ccc(NC(=S)NC(=O)c2ccccc2)cc1)C(F)(F)F (centres undefined)
[18]
  IC50: 39.6 µM (active)

## CC(C)Oc1ccc(C(=O)NC2=NCCS2)cc1
[4]
  IC50: > 66 µM (inactive)
[5]
  IC50: > 66 µM (inactive)
